{"source": "ChEMBL document CHEMBL1145206", "about": "“Design, synthesis and structure-activity relationships of novel taxane-based multidrug resistance reversal agents” (2005)"}
{"tested_on": "MDA-MB-435", "assay": "MDR-reversal activity evaluated against the resistant human breast tumor cell line MDA-435/LCC6-MDR", "type": "functional", "set-up": "concentration or dose not given beside the values", "units": {"Reduction": "%"}}
{"smiles": "CC(=O)O[C@H]1C(=O)[C@]2(C)[C@@H](OC(=O)/C=C/c3cccc(NC(=O)c4ccccc4)c3)C[C@H]3OC[C@@]3(OC(C)=O)[C@H]2[C@H](OC(=O)c2ccccc2)[C@]2(O)C[C@H](OC(C)=O)C(C)=C1C2(C)C", "Reduction": 83}
{"smiles": "CCC(=O)O[C@H]1C(=O)[C@]2(C)[C@@H](OC(=O)/C=C/c3ccc(C(=O)c4ccccc4)cc3)C[C@H]3OC[C@@]3(OC(C)=O)[C@H]2[C@H](OC(=O)c2ccccc2)[C@]2(O)C[C@H](OC(C)=O)C(C)=C1C2(C)C", "Reduction": 88}
{"smiles": "COc1cccc(C(=O)Oc2ccc(/C=C/C(=O)O[C@H]3C[C@H]4OC[C@@]4(OC(C)=O)[C@H]4[C@H](OC(=O)c5ccccc5)[C@]5(O)C[C@H](OC(C)=O)C(C)=C([C@@H](OC(C)=O)C(=O)[C@]34C)C5(C)C)cc2)c1", "Reduction": 34}
{"smiles": "CC(=O)O[C@H]1C(=O)[C@]2(C)[C@@H](OC(=O)/C=C/c3ccc(OC(=O)c4ccc(O)cc4)cc3)C[C@H]3OC[C@@]3(OC(C)=O)[C@H]2[C@H](OC(=O)c2ccccc2)[C@]2(O)C[C@H](OC(C)=O)C(C)=C1C2(C)C", "Reduction": 24}
{"smiles": "CC(=O)O[C@H]1C(=O)[C@]2(C)[C@@H](OC(=O)/C=C/c3ccc(OC(=O)c4cccs4)cc3)C[C@H]3OC[C@@]3(OC(C)=O)[C@H]2[C@H](OC(=O)c2ccccc2)[C@]23OC(=O)O[C@H]2[C@H](OC(C)=O)C(C)=C1C3(C)C", "Reduction": 55}
{"smiles": "COc1ccccc1C(=O)Oc1ccc(/C=C/C(=O)O[C@H]2C[C@H]3OC[C@@]3(OC(C)=O)[C@H]3[C@H](OC(=O)c4ccccc4)[C@]4(O)C[C@H](OC(C)=O)C(C)=C([C@@H](OC(C)=O)C(=O)[C@]23C)C4(C)C)cc1", "Reduction": 57}
{"smiles": "CC(=O)O[C@H]1C[C@@]2(O)[C@@H](OC(=O)c3ccccc3)[C@@H]3[C@]4(OC(C)=O)CO[C@@H]4C[C@H](OC(C)=O)[C@@]3(C)C(=O)[C@H](OC(=O)/C=C/c3ccc(OC(=O)c4ccccc4)cc3)C(=C1C)C2(C)C", "Reduction": 7}
{"smiles": "CC(=O)O[C@H]1C(=O)[C@]2(C)[C@@H](OC(=O)/C=C/c3ccc(OC(=O)c4ccccc4)cc3)C[C@H]3OC[C@@]3(OC(C)=O)[C@H]2[C@H](OC(=O)c2ccccc2)[C@]2(O)C[C@H](OC(C)=O)C(C)=C1C2(C)C", "Reduction": 91}
{"smiles": "CC(=O)O[C@@]12CO[C@@H]1C[C@H](O)[C@@]1(C)C(=O)[C@H](O)C3=C(C)[C@@H](OC(=O)/C=C/c4ccc(C(=O)c5ccccc5)cc4)C[C@@](O)([C@@H](OC(=O)c4ccccc4)[C@H]21)C3(C)C", "Reduction": 0}
{"smiles": "CC(=O)O[C@H]1C(=O)[C@]2(C)[C@@H](OC(=O)/C=C/c3cccc(NC(=O)c4ccccc4)c3)C[C@H]3OC[C@@]3(OC(C)=O)[C@H]2[C@H](OC(=O)c2ccccc2)[C@]23OC(=O)O[C@H]2[C@H](OC(C)=O)C(C)=C1C3(C)C", "Reduction": 91}
{"smiles": "CC(=O)O[C@H]1C(=O)[C@]2(C)[C@@H](OC(=O)/C=C/c3ccc(OC(=O)c4ccc[nH]4)cc3)C[C@H]3OC[C@@]3(OC(C)=O)[C@H]2[C@H](OC(=O)c2ccccc2)[C@]23OC(=O)O[C@H]2[C@H](OC(C)=O)C(C)=C1C3(C)C", "Reduction": 63}
{"smiles": "CC(=O)O[C@H]1C(=O)[C@]2(C)[C@@H](OC(=O)/C=C/c3ccc(C(=O)Oc4ccccc4)cc3)C[C@H]3OC[C@@]3(OC(C)=O)[C@H]2[C@H](OC(=O)c2ccccc2)[C@]23OC(=O)O[C@H]2[C@H](OC(C)=O)C(C)=C1C3(C)C", "Reduction": 84}
{"smiles": "CC(=O)O[C@H]1C(=O)[C@]2(C)[C@@H](OC(=O)/C=C/c3ccc(OC(=O)c4ccc(Br)cc4)cc3)C[C@H]3OC[C@@]3(OC(C)=O)[C@H]2[C@H](OC(=O)c2ccccc2)[C@]23OC(=O)O[C@H]2[C@H](OC(C)=O)C(C)=C1C3(C)C", "Reduction": 34}
{"smiles": "CC(=O)O[C@H]1C[C@@]2(O)[C@@H](OC(=O)c3ccccc3)[C@@H]3[C@]4(OC(C)=O)CO[C@@H]4C[C@H](OC(=O)/C=C/c4ccc(C(=O)c5ccccc5)cc4)[C@@]3(C)C(=O)[C@H](OC(=O)c3ccccc3)C(=C1C)C2(C)C", "Reduction": 51}
{"smiles": "COc1ccc(CC(=O)O[C@H]2C(=O)[C@]3(C)[C@@H](OC(=O)/C=C/c4ccc(C(=O)c5ccccc5)cc4)C[C@H]4OC[C@@]4(OC(C)=O)[C@H]3[C@H](OC(=O)c3ccccc3)[C@]3(O)C[C@H](OC(C)=O)C(C)=C2C3(C)C)cc1", "Reduction": 7}
{"smiles": "COc1ccc(C(=O)Oc2ccc(/C=C/C(=O)O[C@H]3C[C@H]4OC[C@@]4(OC(C)=O)[C@H]4[C@H](OC(=O)c5ccccc5)[C@]56OC(=O)O[C@H]5[C@H](OC(C)=O)C(C)=C([C@@H](OC(C)=O)C(=O)[C@]34C)C6(C)C)cc2)cc1", "Reduction": 69}
{"smiles": "CC(=O)O[C@H]1C(=O)[C@]2(C)[C@@H](OC(=O)/C=C/c3ccc(OC(=O)c4cc5ccccc5[nH]4)cc3)C[C@H]3OC[C@@]3(OC(C)=O)[C@H]2[C@H](OC(=O)c2ccccc2)[C@]23OC(=O)O[C@H]2[C@H](OC(C)=O)C(C)=C1C3(C)C", "Reduction": 43}
{"smiles": "COc1cccc(C(=O)Oc2ccc(/C=C/C(=O)O[C@H]3C[C@H]4OC[C@@]4(OC(C)=O)[C@H]4[C@H](OC(=O)c5ccccc5)[C@]56OC(=O)O[C@H]5[C@H](OC(C)=O)C(C)=C([C@@H](OC(C)=O)C(=O)[C@]34C)C6(C)C)cc2)c1", "Reduction": 62}
{"smiles": "CC(=O)O[C@H]1C(=O)[C@]2(C)[C@@H](OC(C)=O)C[C@H]3OC[C@@]3(OC(C)=O)[C@H]2[C@H](OC(=O)/C=C/c2ccc(C(=O)c3ccccc3)cc2)[C@]2(O)C[C@H](OC(C)=O)C(C)=C1C2(C)C", "Reduction": 27}
{"smiles": "CC(=O)O[C@@]12CO[C@@H]1C[C@H](O)[C@@]1(C)C(=O)[C@H](O)C3=C(C)[C@@H](OC(=O)CCc4ccc5ccccc5c4)C[C@@](O)([C@@H](OC(=O)c4ccccc4)[C@H]21)C3(C)C", "Reduction": 37}
{"smiles": "CC(=O)O[C@H]1C[C@@]2(O)[C@@H](OC(=O)c3ccccc3)[C@@H]3[C@]4(OC(C)=O)CO[C@@H]4C[C@H](OC(C)=O)[C@@]3(C)C(=O)[C@H](OC(=O)/C=C/c3cccc(NC(=O)c4ccccc4)c3)C(=C1C)C2(C)C", "Reduction": 43}
{"smiles": "COC(=O)O[C@H]1C(=O)[C@]2(C)[C@@H](OC(=O)/C=C/c3ccc(C(=O)c4ccccc4)cc3)C[C@H]3OC[C@@]3(OC(C)=O)[C@H]2[C@H](OC(=O)c2ccccc2)[C@]2(O)C[C@H](OC(C)=O)C(C)=C1C2(C)C", "Reduction": 91}
{"smiles": "CC(=O)O[C@H]1C[C@@]2(O)[C@@H](OC(=O)c3ccccc3)[C@@H]3[C@]4(OC(C)=O)CO[C@@H]4C[C@H](OC(C)=O)[C@@]3(C)C(=O)[C@H](OC(=O)/C=C/c3ccc(Oc4ccccc4)cc3)C(=C1C)C2(C)C", "Reduction": 29}
{"smiles": "CC(=O)O[C@H]1C[C@@]2(O)[C@@H](OC(=O)c3ccccc3)[C@@H]3[C@]4(OC(C)=O)CO[C@@H]4C[C@H](OC(C)=O)[C@@]3(C)C(=O)[C@H](OC(=O)/C=C/c3ccc(C(=O)Oc4ccccc4)cc3)C(=C1C)C2(C)C", "Reduction": 24}
{"smiles": "CC(=O)O[C@H]1C(=O)[C@]2(C)[C@@H](OC(=O)/C=C/c3ccc(C(=O)c4ccccc4)cc3)C[C@H]3OC[C@@]3(OC(C)=O)[C@H]2[C@H](OC(=O)C2CCCCC2)[C@]2(O)C[C@H](OC(C)=O)C(C)=C1C2(C)C", "Reduction": 86}
{"smiles": "CC(=O)O[C@H]1C(=O)[C@]2(C)[C@@H](OC(=O)/C=C/c3ccc(C(=O)Oc4ccccc4)cc3)C[C@H]3OC[C@@]3(OC(C)=O)[C@H]2[C@H](OC(=O)c2ccccc2)[C@]2(O)C[C@H](OC(C)=O)C(C)=C1C2(C)C", "Reduction": 27}
{"smiles": "COc1ccc(C(=O)Oc2ccc(/C=C/C(=O)O[C@H]3C[C@H]4OC[C@@]4(OC(C)=O)[C@H]4[C@H](OC(=O)c5ccccc5)[C@]5(O)C[C@H](OC(C)=O)C(C)=C([C@@H](OC(C)=O)C(=O)[C@]34C)C5(C)C)cc2)cc1", "Reduction": 39}
{"smiles": "CC(=O)O[C@H]1C[C@@]2(O)[C@@H](OC(=O)c3ccccc3)[C@@H]3[C@]4(OC(C)=O)CO[C@@H]4C[C@H](OC(C)=O)[C@@]3(C)C(=O)[C@H](OC(=O)/C=C/c3ccc(Sc4ccccc4)cc3)C(=C1C)C2(C)C", "Reduction": 28}
{"smiles": "CC(=O)O[C@H]1C(=O)[C@]2(C)[C@@H](OC(=O)/C=C/c3cccc(OC(=O)c4ccccc4)c3)C[C@H]3OC[C@@]3(OC(C)=O)[C@H]2[C@H](OC(=O)c2ccccc2)[C@]2(O)C[C@H](OC(C)=O)C(C)=C1C2(C)C", "Reduction": 17}
{"smiles": "COc1cccc(C(=O)O[C@H]2[C@@H]3[C@]4(OC(C)=O)CO[C@@H]4C[C@H](OC(=O)/C=C/c4ccc(C(=O)c5ccccc5)cc4)[C@@]3(C)C(=O)[C@H](OC(C)=O)C3=C(C)[C@@H](OC(C)=O)C[C@]2(O)C3(C)C)c1", "Reduction": 95}
{"smiles": "CC(=O)O[C@H]1C(=O)[C@]2(C)[C@@H](OC(=O)/C=C/c3ccc(OC(=O)c4ccccc4)cc3)C[C@H]3OC[C@@]3(OC(C)=O)[C@H]2[C@H](OC(=O)c2ccccc2)[C@]23OC(=O)O[C@H]2[C@H](OC(C)=O)C(C)=C1C3(C)C", "Reduction": 95}
{"smiles": "CC(=O)O[C@H]1C(=O)[C@]2(C)[C@@H](OC(=O)/C=C/c3ccc(OC(=O)c4cccc5ccccc45)cc3)C[C@H]3OC[C@@]3(OC(C)=O)[C@H]2[C@H](OC(=O)c2ccccc2)[C@]2(O)C[C@H](OC(C)=O)C(C)=C1C2(C)C", "Reduction": 89}
{"smiles": "CC(=O)O[C@H]1C[C@@]2(O)[C@@H](OC(=O)c3ccccc3)[C@@H]3[C@]4(OC(C)=O)CO[C@@H]4C[C@H](OC(=O)/C=C/c4ccc(C(=O)c5ccccc5)cc4)[C@@]3(C)C(=O)[C@H](OC(=O)/C=C/c3ccccc3)C(=C1C)C2(C)C", "Reduction": 11}
{"smiles": "COc1ccccc1C(=O)Oc1ccc(/C=C/C(=O)O[C@H]2C[C@H]3OC[C@@]3(OC(C)=O)[C@H]3[C@H](OC(=O)c4ccccc4)[C@]45OC(=O)O[C@H]4[C@H](OC(C)=O)C(C)=C([C@@H](OC(C)=O)C(=O)[C@]23C)C5(C)C)cc1", "Reduction": 79}
{"smiles": "CC(=O)O[C@H]1C[C@@]2(O)[C@@H](OC(=O)c3ccccc3)[C@@H]3[C@]4(OC(C)=O)CO[C@@H]4C[C@H](OC(=O)/C=C/c4ccc(C(=O)c5ccccc5)cc4)[C@@]3(C)C(=O)[C@H](OC(=O)OCc3ccccc3)C(=C1C)C2(C)C", "Reduction": 10}
{"smiles": "CC(=O)O[C@H]1C(=O)[C@]2(C)[C@@H](OC(=O)/C=C/c3ccc(OC(=O)c4ccc([N+](=O)[O-])cc4)cc3)C[C@H]3OC[C@@]3(OC(C)=O)[C@H]2[C@H](OC(=O)c2ccccc2)[C@]23OC(=O)O[C@H]2[C@H](OC(C)=O)C(C)=C1C3(C)C", "Reduction": 27}
{"smiles": "CC(=O)O[C@H]1C(=O)[C@]2(C)[C@@H](OC(=O)/C=C/c3ccc(OC(=O)c4ccc5ccccc5c4)cc3)C[C@H]3OC[C@@]3(OC(C)=O)[C@H]2[C@H](OC(=O)c2ccccc2)[C@]2(O)C[C@H](OC(C)=O)C(C)=C1C2(C)C", "Reduction": 29}
{"smiles": "CC(=O)O[C@H]1C(=O)[C@]2(C)[C@@H](OC(C)=O)C[C@H]3OC[C@@]3(OC(C)=O)[C@H]2[C@H](OC(=O)CCc2ccc3ccccc3c2)[C@]2(O)C[C@H](OC(C)=O)C(C)=C1C2(C)C", "Reduction": 24}
